Source: ChEMBL document CHEMBL5226340, “Chemical Biology of Sortase A Inhibition: A Gateway to Anti-infective Therapeutic Agents” (J Med Chem, 2021)
In brackets after ≈: the same amount, converted by molar mass. Each block holds one molecule with its values, some of them ahead of it.

What was measured:
Sortase A [1] = target: T1, Sortase A (Staphylococcus aureus, UniProt Q9S446); experiment: Inhibition of Staphylococcus aureus SrtA using […] as substrate by FRET assay
T1 sequence (Q9S446 whole entry): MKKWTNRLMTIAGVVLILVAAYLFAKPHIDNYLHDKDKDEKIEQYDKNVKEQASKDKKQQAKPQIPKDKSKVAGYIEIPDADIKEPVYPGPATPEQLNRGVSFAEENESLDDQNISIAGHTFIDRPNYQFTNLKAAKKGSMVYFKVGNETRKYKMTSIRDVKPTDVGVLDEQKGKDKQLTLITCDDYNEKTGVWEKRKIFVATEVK

Sortase A [2] = target: T1, Sortase A; experiment: Inhibition of Staphylococcus aureus USA 300 SrtA expressed in Escherichia coli BL21 (DE3) cells using Dabcyl-QALPETGEE-Edans as substrate preincubated for 30 mins followed by substrate addition and further incubated for 1 hr by FRET assay
Staphylococcus aureus [3] = experiment: Antibacterial activity against Staphylococcus aureus; type: functional
Sortase A [4] = target: T1, Sortase A; experiment: Inhibition of C-terminal 6His-tagged recombinant Staphylococcus aureus SrtA with 1 to 59 residues truncated from N-terminus expressed in Escherichia coli BL21 (DE3) using dabcyl-QALPETGEE-edans as substrate preincubated for 1 hr followed by substrate addition and measured for 1 hr by FRET assay
Staphylococcus aureus [5] = experiment: Inhibition of biofilm formation in Staphylococcus aureus ATCC 6538 incubated for 24 hrs by crystal violet staining based analysis; type: functional, organism-based; conditions: ATCC 6538, 24 h
Sortase A [6] = target: T1, Sortase A; experiment: Inhibition of wild type recombinant Staphylococcus aureus ATCC 25904 Sortase A expressed in Escherichia coli BL21 using Dabcyl-QALPETGEE-Edans as substrate incubated for 30 mins followed by substrate addition and measured after 60 mins by FRET assay
[7] = target: T2, Sortase A (Staphylococcus aureus) (UniProt Q9S446); experiment: Binding affinity to Staphylococcus aureus SrtA assessed as first order rate constant of inactivation
T2 sequence (whole entry): T1 sequence (Q9S446 whole entry)

[8] = target: T2, Sortase A (Staphylococcus aureus); experiment: Binding affinity to Staphylococcus aureus SrtA using Abz-DNP as substrate assessed as second order rate constant of inhibition, kinact/ki
Sortase A [9] = target: T1, Sortase A; experiment: Binding affinity to Staphylococcus aureus SrtA assessed as inhibition constant
Sortase A [10] = target: T1, Sortase A; experiment: Inhibition of Staphylococcus aureus SrtA transpeptidation activity
Sortase A [11] = target: T1, Sortase A; experiment: Inhibition of Staphylococcus aureus SrtA expressed in Escherichia coli BL21 (DE3) cells using Abz-LPETG-Dap(Dnp) as substrate preincubated for 30 mins followed by substrate addition and further incubated for 30 mins by HPLC analysis
[12] = target: T2, Sortase A (Staphylococcus aureus); experiment: Inhibition of Staphylococcus aureus SrtA expressed in Escherichia coli BL21 (DE3) cells using Abz-LPETG-Dap(Dnp) as substrate assessed as kinact/ki
Staphylococcus aureus [13] = experiment: Inhibition of biofilm formation in Staphylococcus aureus ATCC 25923 at 100 uM incubated for 24 hrs by safranin staining based analysis relative to control; type: functional
Staphylococcus aureus [14] = experiment: Inhibition of biofilm formation in Staphylococcus aureus ATCC 29213 at 100 uM incubated for 24 hrs by safranin staining based analysis relative to control; type: functional
Staphylococcus aureus [15] = experiment: Inhibition of biofilm formation in Staphylococcus aureus ATCC 6538 at 100 uM incubated for 24 hrs by safranin staining based analysis relative to control; type: functional
Sortase A [16] = target: T1, Sortase A; experiment: Inhibition of Staphylococcus aureus SrtA using FRET substrate incubated for 1 hr by FRET assay

SMILES: CCOC(=O)/C(=N\Nc1c(F)cccc1F)C(=O)c1cc(C)nn1CC
MIC (Staphylococcus aureus [3]): > 200 µM
IC50 (Sortase A [4]): 75 µM
IC50 (Staphylococcus aureus [5]): 0.9 µM

SMILES: COc1ccc(CCc2cc(OC)c(OC)c(OC)c2)cc1O
MIC (Staphylococcus aureus [3]): 1600 µM (≈ 509 µg/mL)
IC50 (Sortase A [6]): 65.7 µM

SMILES: O=C1C[C@H]2O[C@H](CCc3ccccc3)C3=C(C(=O)C=CC3=O)[C@H]2O1
Kinact [7]: 3.88 10^-2/min
Ratio [8]: 1.09 10^4/M/min
kinact/Ki [8]: 183 M⁻¹ s⁻¹
Ki (Sortase A [9]): 3.57 µM

SMILES: O=S(=O)(/C=C\C(F)(F)F)c1ccccc1
IC50 (Sortase A [11]): 190 µM
Ratio [12]: 90 M⁻¹ min⁻¹

SMILES: CC(=O)/C(=N/Nc1ccccc1)C(=O)O
MIC (Staphylococcus aureus [3]): > 270 µM
IC50 (Sortase A [4]): 80 µM
inhibition at 100 µM (Staphylococcus aureus [13]): 60%
inhibition at 100 µM (Staphylococcus aureus [14]): 60%
inhibition at 100 µM (Staphylococcus aureus [15]): 60%

SMILES: O=c1ccc2cc(O)c(O)cc2o1 [ESCULETIN]
IC50 (Sortase A [16]): 36.2 µM

Other lines, results leading:

IC50 (Sortase A [1]): 67 µM
SMILES: O=c1cc(-c2ccc(O)cc2)oc2cc(O)c([C@@H]3O[C@H](CO)[C@@H](O)[C@H](O)[C@H]3O)c(O)c12 [ISOVITEXIN]

IC50 (Sortase A [2]): 53.2 µM
SMILES: O=C(/C=C/c1ccccc1)c1ccccc1 [CHALCONE]

IC50 (Sortase A [10]): 161 µM
SMILES: O=C(/C=C/c1ccc(O)cc1)O[C@H]1[C@@H](O)[C@H](O)C[C@](O)(C(=O)O)[C@H]1O
